Measured values from article PMC5160925 (Frontiers in Microbiology, 2016).

Columns and labels:
Type in all cases: biochemical
[1] = target: T1, GadA6803 (glutamate decarboxylase) (Synechocystis sp. PCC 6803, UniProt P73043); assay: HPLC of PITC derivatives, GABA formation; conditions: 1 mM glutamate, 50 mM K-phosphate, pH 4.5, room temperature, 1 h
T1 construct: gene gad; full ORF, N-terminal His10 tag kept, E. coli DH5alpha, Ni-NTA purified

[2] = target: T2, ArgD7002 (N-acetylornithine aminotransferase) (Picosynechococcus sp. PCC 7002, UniProt B1XNF8); assay: HPLC of PITC derivatives, glutamate formation; conditions: 1 mM GABA, 1 mM 2-oxoglutarate, 50 mM K-phosphate, pH 9, room temperature, 1 h
T2 construct: gene argD; full ORF, N-terminal His10 tag kept, E. coli DH5alpha, Ni-NTA purified
T2 sequence (B1XNF8 1-418): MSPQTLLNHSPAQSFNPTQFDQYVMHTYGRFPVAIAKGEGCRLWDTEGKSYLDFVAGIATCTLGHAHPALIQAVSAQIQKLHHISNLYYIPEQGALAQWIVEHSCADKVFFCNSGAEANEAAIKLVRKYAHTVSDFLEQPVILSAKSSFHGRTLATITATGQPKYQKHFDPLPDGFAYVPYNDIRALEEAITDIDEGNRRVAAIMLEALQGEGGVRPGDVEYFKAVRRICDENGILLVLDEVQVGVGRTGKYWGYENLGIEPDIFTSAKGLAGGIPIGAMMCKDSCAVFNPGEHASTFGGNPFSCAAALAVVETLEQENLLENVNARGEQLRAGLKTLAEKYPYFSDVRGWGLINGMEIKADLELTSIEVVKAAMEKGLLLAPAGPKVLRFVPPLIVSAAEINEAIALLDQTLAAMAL

[3] = target: T3, ArgD6803 (N-acetylornithine aminotransferase) (Synechocystis sp. PCC 6803, UniProt P73133); assay: HPLC of PITC derivatives, glutamate formation; conditions: 1 mM 2-oxoglutarate, 50 mM K-phosphate, pH 9, room temperature, 1 h
T3 construct: gene argD; full ORF, N-terminal His10 tag kept, E. coli DH5alpha, Ni-NTA purified

N[C@@H](CCC(=O)O)C(=O)O [glutamate]
HPLC of PITC derivatives, GABA formation [1]: this protein catalyzes the conversion of glutamate to GABA

NCCCC(=O)O [GABA]
HPLC of PITC derivatives, glutamate formation [2]: argD6803 or argD7002 was incubated with GABA and 2-oxoglutarate, glutamate was produced
HPLC of PITC derivatives, glutamate formation ([3]; 1 mM GABA): argD6803 or argD7002 was incubated with GABA and 2-oxoglutarate, glutamate was produced

NCCC[C@H](N)C(=O)O [L-ornithine]
HPLC of PITC derivatives, glutamate formation ([3]; 1 mM L-ornithine): argD6803 or argD7002 was incubated with L-ornithine and 2-OG, glutamate was produced
